Earlier results in US20120015404A1, “GENE CLUSTER FOR THU[…]” (HUAZHONG AGRICULTURAL UNIVERSITY, priority 2009, published 2012).

How the values were obtained:
[1] = test system: Helicoverpa armigera
[2] = test system: larvae of housefly; details: larvae of housefly take in thuringiensin
[3] = test system: larvae of Galleria mellonella
[4] = test system: Aedes aegypti
[5] = test system: Phaedon cochleariae
[6] = test system: Plutella maculipennis
[7] = test system: Pieris brassicae
[8] = test system: Anastrepha ludens; details: third stage larvae
[9] = test system: A. obliqua; details: third stage larvae
[10] = test system: A. serpentine; details: third stage larvae
[11] = purified thuringiensin
[12] = low concentration, Helicoverpa armigera

Row | SMILES | acute lethal effect [1, 12] | effect on growth and development [1, 12] | weight of the neonate larvae ([1]; lowest testing concentration, 12 days) | half lethal dose [2] [µg/mL] | toxicity relative to DDT ([3]; injected larvae of Galleria mellonella, times of that of DDT) [times] | half lethal dose ([3]; larvae of Galleria mellonella, injected) [µg/g] | toxicity compared with E605 [4] | activity compared with E605 [5] | activity compared with E605 [6] | activity compared with E605 [7] | LC50 [8] [μg/cm^2] | LC50 [9] [μg/cm^2] | LC50 [10] [μg/cm^2] | mutagenicity [11]
1 | Nc1ncnc2c1ncn2[C@@H]1O[C@H](CO[C@H]2[C@H](O)[C@@H](O)[C@@H](O[C@@H](C(=O)O)[C@H](O)[C@H](OP(=O)(O)O)[C@H](O)C(=O)O)O[C@@H]2CO)[C@@H](O)[C@H]1O [thuringiensin A] | no acute lethal effect | unrecoverable inhibiting effect | no apparent increase |  |  |  |  |  |  |  |  |  |  | 
2 | Nc1ncnc2c1ncn2[C@@H]1O[C@H](CO[C@H]2[C@H](O)[C@@H](O)[C@@H](O[C@@H](C(=O)O)[C@H](O)[C@H](OP(=O)(O)O)[C@H](O)C(=O)O)O[C@@H]2CO)[C@@H](O)[C@H]1O [thuringiensin] |  |  |  | 0.5 | 1000 | 0.005 | less than E605 | more than E605 | more than E605 | more than E605 | 0.641 | 0.512 | 0.408 | no mutagenicity
